Test results published in patent US5869494A, “Uses for barbituric acid analogs” (priority 1997, dated 1999).
Read-outs that look alike come from different tables or passages of the source.

Legend:
Assay type in all cases: cell-based
[1] = test system: PC-3 human prostate cancer cells; assay: Cytotoxicity for prostate cancer cell line PC-3 (MTT assay); settings: read-out: Percent cell kill; for cytotoxicity at 50 µg/mL: 50 μg/ml; for cytotoxicity at 100 µg/mL: 100 μg/ml; for cytotoxicity at 150 µg/mL: 150 μg/ml
Experimental: (§1) In the following examples, tumor cells were treated with varying concentrations of compounds C1, C2, C4 or C5 dissolved in absolute ethanol. To limit any non-specific toxicity, the final concentration of ethanol was not allowed to exceed 0.5%. Stock concentrations of 5 mg/ml or 20 mg/ml were used. Viability of cells was determined in some studies by the trypan blue dye exclusion method. In other studies, cell viability/proliferation activity was determined by MTT assay by using a kit obtained from Promega, (Promega Corp., Madison, Wis. 53711). For this assay, a 100 μl cell suspension containing 5-10^3 monolayer cells or 1×10^5 suspension cells was placed in the wells of a 96-well microtiter plate. After overnight incubation, cells were treated with different concentrations of the test compound. Control wells received vehicle only. After 24, 48, 72 or 96 h of incubation, 50 μl of MTT dye solution was added. After 4 h of incubation at 37° C., 100 μl of solubilization/stop solution was added. After another h of incubation, cells were mixed using a multi-channel pipet and the absorption of the dye color was recorded at 570 nm using a plate reading absorption spectrophotometer.
(§2) After the incubation period, viability of the cells was determined by MTT assay (Promega Corp., Madison, Wis. 53711).

[2] = test system: DU-145 human prostate cancer cells; assay: Cytotoxicity for prostate cancer cell line DU-145 (MTT assay); settings: read-out: Percent cell kill; for cytotoxicity at 50 µg/mL: 50 μg/ml; for cytotoxicity at 100 µg/mL: 100 μg/ml; for cytotoxicity at 150 µg/mL: 150 μg/ml
Experimental: as §1, §2

[3] = test system: Daudi human lymphoma cells; assay: Cytotoxicity for lymphoma cells (Daudi); settings: for cytotoxicity at 50 µg/mL / cytotoxicity at 100 µg/mL / cytotoxicity at 150 µg/mL: Homo sapiens, Daudi; for cytotoxicity at 50 µg/mL: 50 μg/ml; for cytotoxicity at 100 µg/mL: 100 μg/ml; for cytotoxicity at 150 µg/mL: 150 μg/ml, read-out: % Cytotoxicity
Experimental: as §1
The viability of the cells was
Compounds C4 and C5 were also tested for toxicity against human lymphoma Daudi cells.

[4] = test system: BT-20 human breast cancer cells; assay: Cytotoxicity for breast cancer cell line BT-20 (MTT assay); settings: read-out: Percent cell kill; for cytotoxicity at 50 µg/mL: 50 μg/ml; for cytotoxicity at 100 µg/mL: 100 μg/ml; for cytotoxicity at 150 µg/mL: 150 μg/ml
Experimental: as §1, §2

[5] = test system: L1210 mouse leukemia cells; assay: Cytotoxicity for leukemia cells (L1210); settings: for cytotoxicity at 50 µg/mL / cytotoxicity at 110 µg/mL / cytotoxicity at 150 µg/mL: Mus musculus; for cytotoxicity at 50 µg/mL: 50 μg/ml; for cytotoxicity at 110 µg/mL: 110 μg/ml; for cytotoxicity at 150 µg/mL: 150 μg/ml
Experimental: as §1
The viability of the cells was […]

[6] = test system: MCF-7 human breast cancer cells; assay: Cytotoxicity for breast cancer cell line MCF-7 (MTT assay); settings: read-out: Percent cell kill; for cytotoxicity at 50 µg/mL: 50 μg/ml; for cytotoxicity at 100 µg/mL: 100 μg/ml; for cytotoxicity at 150 µg/mL: 150 μg/ml
Experimental: as §1, §2

[7] = test system: HCT-15; assay: NCI tumor cell line screen (SRB assay); settings: Homo sapiens, read-out: PERCENT GROWTH
Experimental: The National Cancer Institute carried out the studies at the direction of the present inventor.
In the tests, the National Cancer Institute used the SRB (sulforhodamine B) assay as described by Skehan et al., (Journal of the National Cancer Institute, 82:13, Jul. 4, 1990, 1107-1112). Briefly, the assay is as follows. TCA-fixed cells were stained for 30 minutes with 0.4% (wt/vol) SRB dissolved in 1% acetic acid. At the end of the staining period, SRB was removed and cultures were quickly rinsed four times with 1% acetic acid to remove unbound dye. The acetic acid was poured directly into the culture wells from a beaker. […] Residual wash solution was removed by sharply flicking plates over a sink, which ensured the complete removal of rinsing solution. […] After being rinsed, the cultures were air dried until no standing moisture was visible. Bound dye was solubilized with 10 mM unbuffered Tris base (pH 10.5) for 5 minutes on a gyratory shaker.
Optical density (OD) was read in either a UVmax microtiter plate reader (Molecular Devices, Menlo Park, Calif.) or a Beckman DU-70 spectrophotometer. For maximum sensitivity, OD was measured at 564 nm. Because readings were linear with dye concentrations only below 1.8 OD units, however, suboptimal wavelengths were generally used, so that all samples in an experiment remained within the linear OD range. With most cell lines, wavelengths of approximately 490-530 nm worked well for this purpose.
Nine different non-small cell lung carcinoma cell lines, six different colon carcinoma cell lines, six different CNS (central nervous system) carcinoma cell lines, seven different melanoma cell lines, six different ovarian carcinoma cell lines, and eight different renal carcinoma cell lines were tested.

[8] = test system: human breast cancer MCF-7 cells; assay: Inhibition of clonogenic growth of breast cancer cells; settings: for No. of Colonies (Mean ± S.D.): control 158.5 ± 12.2
Experimental: After additional incubation periods of 24 h and 48 h, cells were washed to remove the drug and were allowed to grow at 37° C. in a CO2 incubator. After 10 days, colonies consisting of 50 or more cells were counted.

[9] = 48 h, all concentrations tested

CCCCN1C(=O)CC(=O)N(CCCC)C1=S [Compound C1, 4,6(1H, 5H)-pyrimidinedione, 1,3-dibutyldihydro-2-thioxo]
cytotoxicity at 50 µg/mL ([1]; 24 h, 24 hr): 61.7 ± 10% | cytotoxicity at 100 µg/mL ([1]; 24 h, 24 hr): 88.7 ± 5.5% | cytotoxicity at 150 µg/mL ([1]; 24 h, 24 hr): 90.5 ± 7.1% | cytotoxicity at 50 µg/mL ([1]; 48 h, 48 hr): 91 ± 3.6% | cytotoxicity at 100 µg/mL ([1]; 48 h, 48 hr): 92.7 ± 1.2% | cytotoxicity at 150 µg/mL ([1]; 48 h, 48 hr): 94.9 ± 5.3% | cytotoxicity at 50 µg/mL ([1]; 72 h, 72 hr): 100% | cytotoxicity at 100 µg/mL ([1]; 72 h, 72 hr): 100% | cytotoxicity at 150 µg/mL ([1]; 72 h, 72 hr): 100% | cytotoxicity at 50 µg/mL ([1]; 96 h, 96 hr): 100% | cytotoxicity at 100 µg/mL ([1]; 96 h, 96 hr): 100% | cytotoxicity at 150 µg/mL ([1]; 96 h, 96 hr): > 96% | cytotoxicity at 50 µg/mL ([2]; DU-145, 24 h, 24 hr): 0% | cytotoxicity at 100 µg/mL ([2]; DU-145, 24 h, 24 hr): 27.5 ± 6.4% | cytotoxicity at 150 µg/mL ([2]; DU-145, 24 h, 24 hr): 43 ± 2.9% | cytotoxicity at 50 µg/mL ([2]; DU-145, 48 h, 48 hr): 0% | cytotoxicity at 100 µg/mL ([2]; DU-145, 48 h, 48 hr): 52.2 ± 3.4% | cytotoxicity at 150 µg/mL ([2]; DU-145, 48 h, 48 hr): 71 ± 7.3% | cytotoxicity at 50 µg/mL ([2]; DU-145, 72 h, 72 hr): 23.5 ± 4.5% | cytotoxicity at 100 µg/mL ([2]; DU-145, 72 h, 72 hr): 58.7 ± 2.1% | cytotoxicity at 150 µg/mL ([2]; DU-145, 72 h, 72 hr): 78.7 ± 3.4% | cytotoxicity at 50 µg/mL ([2]; DU-145, 96 h, 96 hr): 26.2 ± 5.5% | cytotoxicity at 100 µg/mL ([2]; DU-145, 96 h, 96 hr): 64 ± 4.2% | cytotoxicity at 150 µg/mL ([2]; DU-145, 96 h, 96 hr): 82.5 ± 3.7% | killing of cells [3, 9]: over 99% | cytotoxicity at 50 µg/mL ([3]; 24 h): 91.3 ± 4.6% | cytotoxicity at 100 µg/mL ([3]; 24 h): 93.3 ± 4.9% | cytotoxicity at 150 µg/mL ([3]; 24 h, 24 hr): 94 ± 4.9% | cytotoxicity at 50 µg/mL ([3]; 48 h): 99.9% | cytotoxicity at 100 µg/mL ([3]; 48 h): 99.9% | cytotoxicity at 150 µg/mL ([3]; 48 h, 48 hr): 99.9% | cytotoxicity at 50 µg/mL ([4]; BT-20, 24 h, 24 hr): 43.3 ± 4.1% | cytotoxicity at 100 µg/mL ([4]; BT-20, 24 h, 24 hr): 62 ± 7.9% | cytotoxicity at 150 µg/mL ([4]; BT-20, 24 h, 24 hr): 94 ± 4.2% | cytotoxicity at 50 µg/mL ([4]; BT-20, 48 h, 48 hr): 65.5 ± 2.4% | cytotoxicity at 100 µg/mL ([4]; BT-20, 48 h, 48 hr): 91.3 ± 2.5% | cytotoxicity at 150 µg/mL ([4]; BT-20, 48 h, 48 hr): 96.5 ± 2.4% | cytotoxicity at 50 µg/mL ([4]; BT-20, 72 h, 72 hr): 73.3 ± 2.9% | cytotoxicity at 100 µg/mL ([4]; BT-20, 72 h, 72 hr): 86.8 ± 3.6% | cytotoxicity at 150 µg/mL ([4]; BT-20, 72 h, 72 hr): 86 ± 3.6% | cytotoxicity at 50 µg/mL ([4]; BT-20, 96 h, 96 hr): 100% | cytotoxicity at 100 µg/mL ([4]; BT-20, 96 h, 96 hr): 100% | cytotoxicity at 150 µg/mL ([4]; BT-20, 96 h, 96 hr): 100% | killing of cells [5, 9]: over 99% | cytotoxicity at 50 µg/mL ([5]; L1210, 24 h, 24 hr): 81.2 ± 4.3% | cytotoxicity at 110 µg/mL ([5]; L1210, 24 h, 24 hr): 93.5 ± 3.1% | cytotoxicity at 150 µg/mL ([5]; L1210, 24 h, 24 hr): 89.2 ± 3.2% | cytotoxicity at 50 µg/mL ([5]; L1210, 48 h, 48 hr): 99% | cytotoxicity at 110 µg/mL ([5]; L1210, 48 h, 48 hr, read-out: % Cytotoxicity): 99.9% | cytotoxicity at 150 µg/mL ([5]; L1210, 48 h, 48 hr): 99.9% | cytotoxicity at 50 µg/mL ([6]; MCF7, 24 h, 24 hr): 39.5 ± 10.5% | cytotoxicity at 100 µg/mL ([6]; MCF7, 24 h, 24 hr): 57.3 ± 1.5% | cytotoxicity at 150 µg/mL ([6]; MCF7, 24 h, 24 hr): 87.8 ± 8.8% | cytotoxicity at 50 µg/mL ([6]; MCF7, 48 h, 48 hr): 67.5 ± 5.3% | cytotoxicity at 100 µg/mL ([6]; MCF7, 48 h, 48 hr): 92.8 ± 4.9% | cytotoxicity at 150 µg/mL ([6]; MCF7, 48 h, 48 hr): 92.3 ± 5.3% | cytotoxicity at 50 µg/mL ([6]; MCF7, 72 h, 72 hr): 85.8 ± 3.8% | cytotoxicity at 100 µg/mL ([6]; MCF7, 72 h, 72 hr): 88 ± 5.4% | cytotoxicity at 150 µg/mL ([6]; MCF7, 72 h, 72 hr): 84.5 ± 5.1% | cytotoxicity at 50 µg/mL ([6]; MCF7, 96 h, 96 hr): 97.8 ± 1.7% | cytotoxicity at 100 µg/mL ([6]; MCF7, 96 h, 96 hr): 97.8 ± 1.7% | cytotoxicity at 150 µg/mL ([6]; MCF7, 96 h, 96 hr): 96.5 ± 2.5% | activity at 100 µM ([7]; 10^-4.0 Molar): 72% | activity at 10 µM ([7]; 10^-5.0 Molar): 102% | activity at 1 µM ([7]; 10^-6.0 Molar): 102% | activity at 0.1 µM ([7]; 10^-7.0 Molar): 99% | No. of Colonies (Mean ± S.D.) ([8]; 20 μg/ml, 24 hr): 24.5 ± 7.8 | No. of Colonies (Mean ± S.D.) ([8]; 20 μg/ml, 48 hr): 24.5 ± 6.1 | No. of Colonies (Mean ± S.D.) ([8]; 40 μg/ml, 24 hr): 13.5 ± 5.1 | No. of Colonies (Mean ± S.D.) ([8]; 40 μg/ml, 48 hr): 11.7 ± 1.2 | No. of Colonies (Mean ± S.D.) ([8]; 80 μg/ml, 24 hr): 3.0 ± 2.2 | No. of Colonies (Mean ± S.D.) ([8]; 80 μg/ml, 48 hr): 0 ± 0 | inhibition at 20 µg/mL ([8]; Homo sapiens, MCF7, 20 μg/ml, read-out: Percent Reduction (of colonies)): 84.5% | inhibition at 40 µg/mL ([8]; Homo sapiens, MCF7, 40 μg/ml, read-out: Percent Reduction (of colonies)): 92.6% | inhibition at 80 µg/mL ([8]; Homo sapiens, MCF7, 80 μg/ml, read-out: Percent Reduction (of colonies)): 100% | tumor cell clonogenic growth ([8]; under the conditions employed): virtually complete elimination of tumor cell clonogenic growth
